Measurements: US20240016781A1, “TREATMENT OF KRAS MUTANT CANCERS” (MEI Pharma, Inc., priority 2020, published 2024)

Assays:
[1] = SCID, mouse, in vivo, po, 100 mg/kg
Procedure: Animals were randomized into 2 groups when tumors reached 100 mm diameter. Group A assigned single dosing. […] Drug concentration was measured in tumor and plasma after last dose at the following time points: 0, 4, 8, 24, 48, 72 hrs. […] Concentration of voruciclib in plasma is in units of μg/ml and in μg/g for tumors.

[2] = test system: Relapsed/Refractory B-cell malignancies; Relapsed/Refractory AML; assay: Phase 1 study in R/R B-cell malignancies and AML; type: in vivo, human
Procedure: Study population: Relapsed/Refractory B-cell malignancies; Relapsed/Refractory AML; Dose escalation with standard 3+3 design.
Endpoints: Safety and tolerability, Pharmacokinetics, Biologic correlative studies (BH3 profiling, MCL-1 expression, molecular mutations analysis), Response rates.
Voruciclib single agent dose escalation: 50 mg>100 mg>150 mg>200 mg.
Differentiation syndrome seen in 5 pts (50%) (Increased WBC without increased in blasts, bone pain, pulmonary symptoms; Response to corticosteroids).

HCT-116 (CRC, KRAS G13D) = assay: Murine xenograft tumor growth inhibition, HCT-116; type: in vivo, SCID mice; settings: HCT-116 xenograft; orally 50, 100, or 200 mg/kg OD for 11-14 days; all doses
Procedure: (§1) Voruciclib is an oral inhibitor of CDKs 9, 4, 6, and 1 currently being tested in Phase 1B clinical trials for B-cell malignancies and acute myeloid leukemia. Voruciclib inhibition of CDK9 leads to decreased expression of transcriptional targets of RNA Pol II, such as Mcl1 and MYC. To test whether Voruciclib could be effective in cancers driven by dysregulated KRAS-MYC signaling, ˜20 cancer cell lines with KRAS mutations (G12A, G12C, G12D, G12S, G12V, G13C, G13D, Q61H) were treated in preclinical studies with Voruciclib. MTS and Cell Titer Glo assays were used to monitor growth in vitro. […] To investigate MYC protein stability, MIA PACA-2 (G12C) cells were treated with 4 μM Voruciclib for 5-240 min, followed by SDS-PAGE and Western Blotting analysis with α-MYC and α-pSer62-MYC antibodies. […] A 60% decrease in pSer62 was observed after 5 min that reached 80% by 60 min. […] The ability of Voruciclib to inhibit tumor growth in vivo was also tested in murine xenograft models. KRAS mutant human cancer cells HCT-116 (CRC, KRAS G13D), SW-480 (CRC, KRAS G12V), and H-460 (NSCLC, KRAS Q61H) were injected subcutaneously into SCID mice. Once tumors reached 5-10 mm in diameter, Voruciclib or vehicle were administered orally at 50, 100, or 200 mg/kg OD for 11-14 days. Tumors were measured every 2-3 days, and growth inhibition relative to control was calculated. […]

[3] = test system: cancer cell lines with KRAS mutations (G12A, G12C, G12D, G12S, G12V, G13C, G13D, Q61H); assay: MTS and Cell Titer Glo growth assays in ~20 KRAS mutant cancer cell lines; type: cell-based; settings: ~20 cancer cell lines with KRAS mutations
Procedure: as §1

NCI-H358 cells = assay: 2D culture dose response; type: cell-based; settings: Homo sapiens
Solid Tumors = assay: Monotherapy Phase 1 study in solid tumors, 2 weeks on/1 week off schedule; type: in vivo, human
H-460 (NSCLC, KRAS Q61H) = assay: Murine xenograft tumor growth inhibition, H-460; type: in vivo, SCID mice; settings: H-460 xenograft; orally 50, 100, or 200 mg/kg OD for 11-14 days; all doses
Procedure: as §1

[4] = 2 weeks on/i week off schedule, 75 to 850 mg, 29 pts
[5] = Phase 1 monotherapy studies in solid tumors (both schedules)

voruciclib level in tumor at 8 hours compared to 24 hours post dosing [1]: > 5 fold | IC50 (NCI-H358 cells): 600 nM | myelosuppression (Solid Tumors; [5]): no evidence of myelosuppression
SMILES: CN1CC[C@@H](c2c(O)cc(O)c3c(=O)cc(-c4ccc(C(F)(F)F)cc4Cl)oc23)[C@@H]1CO [Voruciclib, (+)-trans-2-(2-Chloro-4-trifluoromethylphenyl)-5,7-dihydroxy-8-(2-hydroxymethyl-1-methylpyrrolidin-3-yl)-chromen-4-one]
GI toxicity or neutropenia ([2]; 24 pts in 3 dose levels, 10 AML and 14 B-cell malignancies): No GI toxicity or neutropenia at doses studied | patients with differentiation syndrome ([2]; AML): 50% | tumor growth inhibition relative to control (HCT-116 (CRC, KRAS G13D)): > 50% | viability (growth in vitro) [3]: decreased viability in all cell lines tested | best response (Solid Tumors; [4]): 1 PR and 8 SD lasting 2 to 6 months | disease control rate (Solid Tumors; [4]): 41% | most common AEs (Solid Tumors; [5]): most common AEs involved GI tract | tumor growth inhibition relative to control (H-460 (NSCLC, KRAS Q61H)): > 50%
